Reference: PMC4368788, “Depsides: Lichen Metabolites Active against Hepatitis C Virus” (PLoS ONE, 2015)
Entries after “also recorded” stand apart in the source; their conditions may differ. Like-named read-outs stand apart in the source and are kept apart here.

How the values were obtained:
HCVcc [1] = assay: Anti-HCV activity: HCVcc expressing Renilla luciferase in Huh-7.5.1 cells, luciferase readout; format: cell-based, hepatitis C virus; details: for IC50: Hepatitis C virus, Huh-7.5.1 cells infected with HCVcc, 1 h preincubation then 48 h with virus, mean ± SEM, three experiments; for Anti-HCV activity: HCVcc in Huh-7.5.1 cells, up to 100 μM; for SI (selectivity index): ratio of CC50 to IC50
Experimental: (§1) Huh-7.5.1 cells were maintained in Dulbecco's modified Eagle's medium (DMEM) containing 4.5 g/l D-glucose, 4 mM L-glutamine (Life Technologies), supplemented with 100 units/mL penicillin (Life Technologies), 100 μg/mL streptomycin (Life Technologies), non-essential amino acids (Sigma-Aldrich), 1 mM Hepes (Life Technologies) and 10% heat-inactivated fetal calf serum (FCS, Hyclone). […] In cell viability and HCV in vitro propagation experiments, the final concentration of DMSO was systematically adjusted to 0.1%. We checked that this amount of DMSO had no effect on the biological cycle of HCVcc in vitro (data not shown).
(§2) HCVcc was generated from the FL-J6/JFH-5’C19Rluc2AUbi construct, a monocistronic, full-length HCV genome that expresses Renilla luciferase. It was produced and titrated as described elsewhere, except for the readout for luciferase activity measurement. Cell viability was evaluated with the Cell Proliferation Reagent WST-1 (Roche), according to the manufacturer’s instructions. Luciferase assays were performed according to the manufacturer’s instructions (Promega) and measurements were performed on a Centro XS3 LB960 luminometer (Berthold Technologies).
(§3) Cell viability and viral replication data from at least three independent experiments were analyzed. The IC50 values of the compounds were determined from dose-response curves generated with seven to 12 concentrations of each compound. Curves were fitted to the data points by nonlinear regression analysis and IC50 values were interpolated from the resulting curves with GraphPad Prism 5.00 software.
We evaluated the anti-HCV activity of the 10 atranorin-related compounds, using a virus grown in cell culture (HCVcc) with a modification of its genome resulting in expression of the Renilla luciferase reporter gene. […] These two compounds are known to interfere with the entry and replication steps of viral cycle, respectively. The maximum dose of each tested compound was 100 μM, because most of these molecules became insoluble in aqueous solution at higher concentrations. The first experimental procedure used involved the preincubation of human hepatic Huh-7.5.1 cells for 1 h with various doses of the molecules. The cells were then cultured in the presence of both the molecules tested and the virus, for an additional 48 h. At the end of the incubation period, we assessed cell viability and viral replication. This protocol made it possible to test the effects of molecules on both virus entry and replication. […] Remarkably, compound 6 tended to give a slightly, but reproducibly higher viability signal when used at high doses, with a peak at about 50 μM. […] At concentrations greater than 50 μM, cytotoxic effects emerged, as shown by the decrease of the viability signal.

Huh-7.5.1 cells [2] = assay: in vitro; format: cell-based, human; details: for Effect on cell viability signal: high doses, up to 100 μM; for Effect on cell viability signal / CC50: 48 h; for CC50: half-maximal cytotoxicity concentration, Huh-7.5.1 cells, mean ± SEM, maximum dose tested 100 μM
Experimental: as §1, with “0.1%.” for “0.1%. We checked that this amount of DMSO had no effect on the biological cycle of HCVcc in vitro (data not shown).”
as §2, §3
(§4) We evaluated the anti-HCV activity of the 10 atranorin-related compounds, using a virus grown in cell culture (HCVcc) with a modification of its genome resulting in expression of the Renilla luciferase reporter gene. […] These two compounds are known to interfere with the entry and replication steps of viral cycle, respectively. […] The first experimental procedure used involved the preincubation of human hepatic Huh-7.5.1 cells for 1 h with various doses of the molecules. The cells were then cultured in the presence of both the molecules tested and the virus, for an additional 48 h. At the end of the incubation period, we assessed cell viability and viral replication. This protocol made it possible to test the effects of molecules on both virus entry and replication.

in vitro = format: cell-based, human; details: human, mean ± SEM; for CC50 at 48 h: half-maximal cytotoxicity concentration, Huh-7.5.1 cells, maximum dose tested 100 μM; for viability at 48 h, 50 µM / viability at 48 h, 100 µM: percentage of vehicle (0.1% DMSO) control; for viability at 48 h, 10 µM: 10 μM (controls)
Experimental: as §1, with “0.1%.” for “0.1%. We checked that this amount of DMSO had no effect on the biological cycle of HCVcc in vitro (data not shown).”
as §2, §3, §4

Huh-7.5.1 cells [3] = assay: Cell viability in the inoculation/replication (I, R, I/R) procedure; format: cell-based, human
Experimental: (§5) An experimental procedure was designed to determine the inhibitor class (entry or replication) to which compounds 1, 5 and 6 belonged. HCVcc were added to the cell culture during a limited time window (around 17 h). The cells were then washed to eliminate viruses from the inoculum and viral replication was allowed to take place for an additional 30 h. The selected compounds were present in the culture medium during inoculation (I), replication (R), or both these phases (inoculation and replication, I/R). […] In terms of antiviral activity, we expected to obtain two inhibition profiles for the luminescence signal, depending on the step of the viral lifecycle targeted by the drug (Fig. 4B). […] The inhibitory effect on the establishment of replication (R conditions) observed at high doses was probably due principally to the inhibition of new infection cycles initiated by virions produced by cells infected with the inoculum. A different profile was obtained for telaprevir. […] Its presence in the medium from inoculation onwards prevented the priming of the infection process at the viral polyprotein maturation step, which normally takes place after the translation of the HCV genome issued from the infecting virus. This maturation step is also repeated during the replication phase, for amplification of the viral genome and virion assembly. It is therefore not surprising that inhibition was strongest when telaprevir was present throughout the viral lifecycle (I/R), as there was probably an additive effect. […] The chemical group in this position seems to influence not only the potency of the molecule, but also its mechanism of action. Further studies are required to identify the processes involved because, for example, we cannot rule out a role in the inhibition of viral entry for compounds 5 and 6, even though they appeared to act as replication inhibitors in this experiment. It could be hypothesized that the replacement of a methyl or hydroxymethyl by an aldehyde group in position C-3 would lead to a loss of replication inhibition, but maintenance of the ability to inhibit viral entry.
(§6) Fig 4 Effects of compounds 1, 5 and 6 on cell viability and HCV propagation in vitro. One day after seeding at 50,000 cells/cm^2, Huh-7.5.1 cells were infected with HCVcc at a MOI ~ 0.03 for 17 h (inoculation phase: I). The inoculum was removed and cell cultures were washed before the addition of new medium and incubation for an additional 30 h (replication phase: R). […] (A) Cell viability and (B) viral replication were assessed at the end of the incubation period. Results are expressed as percentages (mean ± SEM; n = 3) of the mean values obtained for the respective control cultures, in which cells were incubated with vehicle (0.1% DMSO) alone.

HCVcc [4] = assay: Targeted stage of HCV life cycle: compounds present during inoculation (I), replication (R) or both (I/R), luciferase readout; format: cell-based, hepatitis C virus; details: for Inhibition profile / step of HCV lifecycle targeted: compounds present during I (17 h), R (30 h) or I/R
Experimental: as §5
Fig 4 Effects of compounds 1, 5 and 6 on cell viability and HCV propagation in vitro. One day after seeding at 50,000 cells/cm^2, Huh-7.5.1 cells were infected with HCVcc at a MOI ~ 0.03 for 17 h (inoculation phase: I). The inoculum was removed and cell cultures were washed before the addition of new medium and incubation for an additional 30 h (replication phase: R). Compounds were present at various concentrations either during both phases (I/R: black circles and solid lines) or during only one phase (I: black squares and dotted lines; R: black triangles and dashed lines). (A) Cell viability and (B) viral replication were assessed at the end of the incubation period. Results are expressed as percentages (mean ± SEM; n = 3) of the mean values obtained for the respective control cultures, in which cells were incubated with vehicle (0.1% DMSO) alone.

[5] = Stability of the molecule in solution; format: physicochemical; details: even if dissolved immediately before use
[6] = Cell viability in the inoculation/replication (I, R, I/R) procedure; format: cell-based, human; details: human; I, R, I/R incubation conditions
Experimental: as §5, §6

[7] = percentage of vehicle control, n = 3

Row | SMILES | IC50 (HCVcc [1]) [µM] | Effect on cell viability signal (Huh-7.5.1 cells [2]) | CC50 at 48 h (in vitro) [µM] | viability at 48 h, 50 µM (in vitro; n = 3) [%] | viability at 48 h, 100 µM (in vitro; n = 3) [%] | Inhibition profile / step of HCV lifecycle targeted (HCVcc [4]) | also measured
1 | COC(=O)c1c(C)cc(O)c(C=O)c1O [Compound 10, methyl haematommate] | 55.5 ± 7.9 | minimal loss of signal | > 100 | 88.1 ± 5.5 | 72.2 ± 2 | – | –
2 | C#Cc1cccc(Nc2ncnc3cc(OCCOC)c(OCCOC)cc23)c1 [Erlotinib, erlotinib, reference compound] | 0.64 ± 0.18 | – | – | – | – | most efficient if present at least during the initial interaction between cells and viruses | viability at 48 h, 10 µM (in vitro; [7]): 86.5 ± 5.1%; Effect on cell viability (Huh-7.5.1 cells [3]): small anti-proliferative effect
3 | COC(=O)c1c(C)cc(OC(=O)c2c(C)cc(O)c(/C=C/C(C)=O)c2O)c(C)c1O [Compound 2, (E)-[3-hydroxy-4-(methoxycarbonyl)-2,5-dimethylphenyl]-2,4-dihydroxy-6-methyl-3-(3-oxobut-1-en-yl) benzoate] | 64.5 ± 26.5 | – | > 100 | 110 ± 5.9 | 107 ± 5.7 | – | melting point: 234 to 236 °C (dec.); Stability in solution [5]: instability of the molecule in solution
4 | COC(=O)c1c(C)cc(OC(=O)c2c(C)cc(O)c(C)c2O)c(C)c1O [Compound 6, Methyl-4-O-demethylbarbatate] | 13.3 ± 1.6 | – | > 100 | 145 ± 3.2 | 81.6 ± 20.6 | interfered with viral replication; also recorded: profiles typical of replication inhibitors | Concentration above which cytotoxic effects emerged (Huh-7.5.1 cells [2]; decrease of the viability signal): greater than 50 μM; Concentration of the peak of the higher viability signal (Huh-7.5.1 cells [2]; slightly higher viability signal at high doses, modest stimulation of cell proliferation): about 50 μM; Cytotoxicity at 100 μM (Huh-7.5.1 cells [3]; 100 μM, except in R conditions): induced some cytotoxicity
5 | COC(=O)c1c(C)cc(OC(=O)c2c(C)cc(O)c(C(=O)O)c2O)c(C)c1O [Compound 4, cladonioidesin] | > 100 | minimal loss of signal | > 100 | 104 ± 2.5 | 90.4 ± 3.4 | – | Anti-HCV activity (HCVcc [1]): inactive
6 | COC(=O)c1c(C)cc(OC(=O)c2c(C)cc(O)c(CO)c2O)c(C)c1O [Compound 5, Methyl-8-hydroxy-4-O-demethylbarbatate] | 11.8 ± 1.1 | – | 106 | 88.4 ± 7.3 | 55.8 ± 5.9 | interfered with viral replication; also recorded: profiles typical of replication inhibitors | SI (selectivity index) (HCVcc [1]): 8.9; CC50 (Huh-7.5.1 cells [2]): 106 ± 7.3 µM; CC50 [6]: ~100 µM
7 | Cc1cc(O)c(C=O)c(O)c1 [Compound 9, atranol] | 40.3 ± 0.6 | minimal loss of signal | > 100 | 91.1 ± 3.5 | 78.7 ± 2.3 | – | –
8 | COC(=O)c1c(C)cc(OC(=O)c2c(C)cc(O)c(C=O)c2O)c(C)c1O [Compound 1, atranorin] | 22.3 ± 8 | minimal loss of signal | > 100 | 95.9 ± 4.5 | 91.8 ± 5.9 | inhibited only viral entry; also recorded: effects similar to those of erlotinib | Effect on cell viability (Huh-7.5.1 cells [3]; regardless of incubation conditions (I, R, I/R)): no effect on cell viability; Inhibitory effect when present only during inoculation (HCVcc [4]; I condition only, up to 100 μM): no inhibitory effect
9 | COC(=O)c1c(C)cc(O)c(C)c1O [Compound 7, methyl-2,4-dihydroxy-3,6-dimethylbenzoate] | 50.6 ± 5 | – | > 100 | 101 ± 5.6 | 97.3 ± 6.2 | – | –
10 | COC(=O)c1c(C)cc(OC(=O)c2c(C)cc(O)cc2O)c(C)c1O [Compound 3, methyl-3’-methyllecanorate] | 25.4 ± 1.7 | – | 82 | 52.7 ± 0.6 | 63.1 ± 2.9 | – | SI (selectivity index) (HCVcc [1]): 3.2; CC50 (Huh-7.5.1 cells [2]): 81.9 ± 13.6 µM
11 | COC(=O)c1c(C)cc(O)cc1O [Compound 8, methyl orsellinate] | ≥ 100 | minimal loss of signal | > 100 | 106 ± 2.9 | 93.4 ± 4.2 | – | Anti-HCV activity (HCVcc [1]): inactive
12 | CCC[C@H](NC(=O)[C@@H]1[C@H]2CCC[C@H]2CN1C(=O)[C@@H](NC(=O)[C@@H](NC(=O)c1cnccn1)C1CCCCC1)C(C)(C)C)C(=O)C(=O)NC1CC1 [Telaprevir, telaprevir, reference compound] | 0.18 ± 0.02 | – | – | – | – | inhibitory action regardless of the experimental conditions (I or R) | viability at 48 h, 5 µM (in vitro; 5 μM (controls), percentage of vehicle control, n = 3): 101.9 ± 0.9%; viability at 48 h, 10 µM (in vitro; [7]): 94.1 ± 4%
